Where a SMILES comes first, the peptide text is derived from it. Bridges are numbered along the chain shown (N, C = ends). The star is where a group is joined. X1 = CC(C)Cc1ccc([C@@H](C)C(=O)*)cc1
Legend:
[1] = Plasma half-life in male New Zealand white rabbits after i.v. administration at 2.0 mg/kg; type: ADME, organism-based, Oryctolagus cuniculus; set-up: dose 2 mg/kg, route intravenous; conditions: rabbit, iv
[2] = Mean retention time in male New Zealand white rabbits after administration via an indwelling catheter in an ear vein at 4.9 mg/kg; type: ADME, organism-based, Oryctolagus cuniculus; set-up: dose 4.9 mg/kg; conditions: rabbit, in vivo, iv
[3] = Mean retention time in male New Zealand white rabbits after i.v. administration at 2.0 mg/kg; type: ADME, organism-based, Oryctolagus cuniculus; set-up: dose 2 mg/kg, route intravenous; conditions: rabbit, in vivo, iv
[4] = Plasma half-life in male New Zealand white rabbits after administration via an indwelling catheter in an ear vein at 4.9 mg/kg; type: ADME, organism-based, Oryctolagus cuniculus; set-up: dose 4.9 mg/kg; conditions: rabbit, iv
[5] = Clearance in male New Zealand white rabbits after administration via an indwelling catheter in an ear vein at 4.9 mg/kg; type: ADME, organism-based, Oryctolagus cuniculus; set-up: dose 4.9 mg/kg; conditions: rabbit, in vivo, iv
[6] = Clearance in male New Zealand white rabbits after i.v. administration at 2.0 mg/kg; type: ADME, organism-based, Oryctolagus cuniculus; set-up: dose 2 mg/kg, route intravenous; conditions: rabbit, in vivo, iv
Coagulation factor VII = biological target: T1, Coagulation factor VII (Homo sapiens, UniProt P08709); experiment: Inhibition of amino terminally biotinylated E-76 peptide binding to immobilized fVIIa
T1 sequence (P08709 whole entry): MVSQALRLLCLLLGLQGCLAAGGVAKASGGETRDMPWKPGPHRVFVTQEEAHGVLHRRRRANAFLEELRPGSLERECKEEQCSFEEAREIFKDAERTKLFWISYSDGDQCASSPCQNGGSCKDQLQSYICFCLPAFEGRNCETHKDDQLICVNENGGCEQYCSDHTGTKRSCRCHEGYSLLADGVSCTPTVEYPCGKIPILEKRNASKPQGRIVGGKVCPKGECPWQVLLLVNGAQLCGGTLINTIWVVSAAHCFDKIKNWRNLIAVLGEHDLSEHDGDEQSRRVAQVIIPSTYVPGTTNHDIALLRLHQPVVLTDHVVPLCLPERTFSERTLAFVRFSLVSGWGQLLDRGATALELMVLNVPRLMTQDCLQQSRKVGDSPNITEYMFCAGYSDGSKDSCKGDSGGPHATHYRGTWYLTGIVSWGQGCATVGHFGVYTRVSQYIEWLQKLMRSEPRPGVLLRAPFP

Albumin = Albumin (Homo sapiens, UniProt P02768); experiment: In vitro binding affinity for human serum albumin.; set-up: unit not given here
Albumin, sequence (P02768 whole entry): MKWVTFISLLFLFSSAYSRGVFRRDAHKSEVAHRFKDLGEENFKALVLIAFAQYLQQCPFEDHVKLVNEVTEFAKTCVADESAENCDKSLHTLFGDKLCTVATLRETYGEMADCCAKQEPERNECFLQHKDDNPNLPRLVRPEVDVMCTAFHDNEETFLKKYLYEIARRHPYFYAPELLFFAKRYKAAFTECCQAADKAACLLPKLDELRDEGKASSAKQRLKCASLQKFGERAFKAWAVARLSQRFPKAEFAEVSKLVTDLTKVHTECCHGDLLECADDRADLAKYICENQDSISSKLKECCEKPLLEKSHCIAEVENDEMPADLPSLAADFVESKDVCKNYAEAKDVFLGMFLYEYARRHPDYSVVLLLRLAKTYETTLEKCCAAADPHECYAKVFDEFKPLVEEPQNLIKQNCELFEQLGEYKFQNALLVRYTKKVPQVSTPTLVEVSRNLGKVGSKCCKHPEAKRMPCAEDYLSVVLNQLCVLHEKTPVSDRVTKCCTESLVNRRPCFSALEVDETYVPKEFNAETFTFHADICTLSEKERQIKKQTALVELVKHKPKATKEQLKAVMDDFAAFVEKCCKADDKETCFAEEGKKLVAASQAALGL

half-life [1]: 17 min
MRT [2]: 33 min
MRT [3]: 19 min
half-life [4]: 24 min
clearance [5]: 1.5 mL/min/kg
clearance [6]: 1.8 mL/min/kg
IC50 (Coagulation factor VII): 14.6 nM
Binding affinity (Albumin): 0.76
Compound: CC[C@H](C)[C@@H]1NC(=O)[C@H](CCCN=C(N)N)NC(=O)[C@@H]2CCCN2C(=O)[C@H](CC(N)=O)NC(=O)[C@H](CC(=O)O)NC(=O)[C@@H](NC(=O)[C@H](CC(C)C)NC(=O)[C@H](C)NC(=O)[C@H](C)c2ccc(CC(C)C)cc2)CSSC[C@@H](C(=O)N[C@@H](CCC(N)=O)C(=O)N[C@@H](Cc2ccccc2)C(=O)N[C@H](C(=O)N[C@@H](CCC(=O)O)C(=O)NCC(N)=O)C(C)C)NC(=O)[C@H](Cc2ccc(O)cc2)NC(=O)[C@H](Cc2c[nH]c3ccccc23)NC(=O)[C@H](CCCN=C(N)N)NC(=O)[C@H](CC(=O)O)NC1=O (X1-ALCDNPRIDRWYCQFVEG-NH2; disulfide 3-13)

From ChEMBL document CHEMBL1135206, “Albumin affinity tags increase peptide half-life in vivo” (Bioorg Med Chem Lett, 2002)
